{
  "source": "patent US20250144178A1",
  "about": "“PHARMACEUTICAL COMPOSITION FOR CANCER TREATMENT COMPRISING FUSION PROTEIN INCLUDING IL-12 AND ANTI-FAP ANTIBODY AND ANTICANCER AGENT” (KANAPH THERAPEUTICS INC., priority 2022, published 2025)",
  "key": {"HEK-Blue IL-12 cells": {"tested_on": "HEK-Blue IL-12 cells", "experiment": "Signaling ability in IL-12 recognizing cells (STAT4 inducible SEAP reporter)", "format": "cell-based, human", "conditions": "serial dilution from 4 nM, 24 hours, FIG. 18", "method": "The HEK-Blue IL-12 cell line transformed with the IL-12 receptor gene and the STAT4 inducible SEAP reporter gene into HEK293 cells, which are human embryonic kidney fibroblasts, was obtained from Invivogen (San Diego, USA). The HEK-Blue IL-12 cells were maintained in DMEM (GIBCO) containing 10% FBS (GIBCO), 100 μg/ml Normocin and 1×HEK-Blue selection.\nSpecifically, the HEK-Blue IL-12 cell line, which is an IL-12 recognizing cell, was diluted to 2.8×10^5 cells/ml and dispensed at 180 μl/well. Recombinant human IL-12, T1.01m, T1.02m, T1.03m and T1.12m were suspended at 4 nM and diluted by serial dilution. HEK-Blue IL-12 cells were treated with the diluted recombinant human IL-12, T1.01m, T1.02m, T1.03m and T1.12m. After 24 hours of treatment, the cell supernatant was collected and mixed with QUANTI-Blue Solution (Invivogen) in a 96-well plate. The reporter expression level was measured at 620 nm using a spectrophotometer (Thermo Fisher)."}, "[1]": {"tested_on": "IL-12 receptor of human T cells", "experiment": "p-STAT4 signaling ability in human T cells (AlphaLISA)", "format": "cell-based", "conditions": "anti-CD3 activated human T cells, 2 hours, FIG. 19; read-out: half maximal effective concentration (EC50), p-STAT4", "method": "In order to identify whether when IL-12 binds to the IL-12 receptor of human T cells, IL-12 initiate signaling by inducing phosphorylation of STAT4, a signaling mediator, the human T cells activated with anti-CD3 (OKT3, Invitrogen) were analyzed using the AlphaLISA SureFire Ultra p-STAT4 (Tyr693) Assay Kit (PerkinElmer, Massachusetts, USA).\nSpecifically, human proteins IL-12, T1.01, T1.02, T1.03 and T1.12 were suspended at 100 ng/ml and diluted by serial dilution. The human T cells activated with anti-CD3 (OKT3, Invitrogen) were treated with the diluted recombinant human IL-12, T1.01, T1.02, T1.03 and T1.12. After 2 hours of treatment, the cells were lysed and treated with a reagent (PerkinElmer) that detects p-STAT4 (phosphorylated STAT4). pSTAT4 was detected at an excitation wavelength of 680 nm and an emission wavelength of 615 nm with a spectrophotometer."}, "human T cells": {"tested_on": "human T cells", "experiment": "IFN-γ secretion in human T cells (ELISA)", "format": "cell-based", "conditions": "anti-CD3 activated human T cells, 48 hours, FIG. 21", "method": "For cytokine measurement, enzyme-linked immunosorbent assay (ELISA, R&D systems) was performed on the supernatant stored at −20° C. in the following steps:\n(i) The capture antibody was diluted according to the Certificate of Analysis (CoA) and coated on a 96-well plate for 24 hours.\n(ii) The wells were washed with a wash solution, and then blocking was performed for 1 hour with 1% BSA (Bovine serum albumin, Sigma) solution.\n(iii) The wells were washed with a wash solution, and then the samples were treated for 2 hours.\n(iv) The wells were washed with a wash solution, and then the detection antibody was diluted according to the Certificate of Analysis and aliquoted into the wells, and then the wells were treated therewith for 2 hours.\n(v) The wells were washed with a wash solution, and then treated with streptavidin-HRP for 20 minutes.\n(vi) The wells were washed with a wash solution, and then treated with a substrate solution for 20 minutes.\n(vii) The wells were treated with a stop solution, and the absorbance was measured at 450 nm.\nSpecifically, the human T cells activated with anti-CD3 (OKT3, Invitrogen) were diluted to 5×10^5 cells/ml and dispensed in a 96-well plate at 200 μl/well. Recombinant human IL-12, T1.12, T1.01, T1.02 and T1.03 were diluted to 10 nM and dispensed at 20 μl/well. […]"}},
  "data": [
    {"substance": "recombinant human IL-12: Recombinant human IL-12 used as comparator in signaling and IFN-γ secretion tests [reference compound]", "values": [
      {"measurement": "IL-12 recognition / STAT4 reporter gene expression (620 nm absorbance)", "setting": "HEK-Blue IL-12 cells", "result": "IL-12 was recognized, and STAT4 expressed a reporter gene by inducing phosphorylation"},
      {"measurement": "EC50", "setting": "[1]", "result": 8.95, "unit": "pM"},
      {"measurement": "average IFN-γ in supernatant", "setting": "human T cells", "result": "1,640 pg/ml"}
    ]}
  ]
}
